Experimental findings from ChEMBL document CHEMBL5360663, “Discovery of a Novel Photocaged PI3K Inhibitor Capable of Real-Time Reporting of Drug Release” (ACS Med Chem Lett, 2023) are described below.

Structures are written as SMILES. The source made the active and inactive calls. The rule behind the calls is not given here.

Data set [1] has as its system HGC-27. Nature of the data set: Photorelease activity in human HGC-27 cells assessed as increase in intracellular fluorescence intensity at 0.4 to 10 uM incubated for 2 hrs in presence of UV irradiation for 5 to 30 mins by fluorescence based microplate reader analysis. The data set is classed as ADME, cell-based. The settings on record: hgc-27, 2 h, TDE = time-dependent effect, dose 0.4-10 µM.

Data set [2] in a line: Antiproliferative activity against human U373 cells assessed as inhibition of cell growth measured after 72 hrs by CTG assay. The settings on record: U373 MG. The data set is classed as functional, cell-based.
Data set [3] in a line: Selectivity ratio of IC50 for antiproliferative activity against human HGC-27 cells to IC50 for antiproliferative activity against human HGC-27 cells in presence of UV irradiation. It counts as functional.
For data set [4], the system named is SK-MEL-2. In words: Antiproliferative activity against human SK-MEL-2 cells assessed as inhibition of cell growth pre-treated with compound followed by UV irradiation for 5 mins measured after 72 hrs by CTG assay. It counts as functional, cell-based. The settings on record: SK-MEL-2, light or radiation study.
For data set [5], the system named is HGC-27. Nature of the data set: Photorelease activity in human HGC-27 cells assessed as release of 7-hydroxy-3-(hydroxymethyl)-2H-chromen-2-one incubated for 2 hrs in presence of UV irradiation by confocal microscopic analysis. The data set is classed as ADME, cell-based. The settings on record: hgc-27, 2 h, dose 1-10 µM.
The subject of data set [6] is HGC-27. In words: Antiproliferative activity against human HGC-27 cells assessed as inhibition of cell growth measured after 72 hrs by CTG assay. It counts as functional, cell-based. The settings on record: HGC-27, 72 h.
Data set [7] can be described thus: Selectivity ratio of IC50 for antiproliferative activity against human MCF7 cells to IC50 for antiproliferative activity against human MCF7 cells in presence of UV irradiation. The data set is classed as toxicity, cell-based. The settings on record: read-out: Ratio IC50.
The nature of data set [8]: Selectivity ratio of IC50 for antiproliferative activity against human U373 cells to IC50 for antiproliferative activity against human U373 cells in presence of UV irradiation. It counts as functional.
For data set [9], the system named is HGC-27. In words: Photorelease activity in human HGC-27 cells assessed as release of 7-hydroxy-3-(hydroxymethyl)-2H-chromen-2-one incubated for 2 hrs by confocal microscopic analysis. It counts as ADME, cell-based. The settings on record: hgc-27, 2 h.
The nature of data set [10]: Selectivity ratio of IC50 for antiproliferative activity against human SK-MEL-5 cells to IC50 for antiproliferative activity against human SK-MEL-5 cells in presence of UV irradiation. It counts as functional.
The subject of data set [11] is U-87 MG. Nature of the data set: Antiproliferative activity against human U-87 MG cells assessed as inhibition of cell growth measured after 72 hrs by CTG assay. It counts as functional, cell-based, U-87MG ATCC.
The test system of data set [12] is HGC-27. Nature of the data set: Photorelease activity in human HGC-27 cells assessed as increase in intracellular fluorescence intensity incubated for 2 hrs in presence of UV irradiation for 5 to 30 mins by fluorescence based microplate reader analysis. The data set is classed as ADME, cell-based. The settings on record: hgc-27, 2 h, dose 0.4-10 µM.
Data set [13] is described as follows: Selectivity ratio of IC50 for antiproliferative activity against human SK-MEL-2 cells to IC50 for antiproliferative activity against human SK-MEL-2 cells in presence of UV irradiation. It counts as functional.
Data set [14] concerns SK-MEL-2. Nature of the data set: Antiproliferative activity against human SK-MEL-2 cells assessed as inhibition of cell growth measured after 72 hrs by CTG assay. The data set is classed as functional, cell-based. The settings on record: SK-MEL-2, 72 h.
Data set [15] has as its system SK-MEL-5. Nature of the data set: Antiproliferative activity against human SK-MEL-5 cells assessed as inhibition of cell growth pre-treated with compound followed by UV irradiation for 5 mins measured after 72 hrs by CTG assay. The data set is classed as functional, cell-based. The settings on record: SK-MEL-5, light or radiation study.
The subject of data set [16] is U-87 MG. In words: Antiproliferative activity against human U-87 MG cells assessed as inhibition of cell growth pre-treated with compound followed by UV irradiation for 5 mins measured after 72 hrs by CTG assay. It counts as functional, cell-based, U-87MG ATCC. The settings on record: light or radiation study.
In data set [17] the test system is HGC-27. Nature of the data set: Inhibition of colony formation in human HGC-27 cells at 10 nM pre-treated with compound followed by UV irradiation for 5 mins measured after 3 days by crystal violet staining based analysis. The data set is classed as functional, cell-based. The settings on record: time 4325.0 min.
In data set [18] the target is Phosphatidylinositol 4,5-bisphosphate 3-kinase catalytic subunit alpha isoform (Homo sapiens, UniProt P42336). Nature of the data set: Inhibition of PI3Kalpha (unknown origin) using PIP2 as substrate in presence of ATP by Kinase-Glo assay. (Kinase-Glo measures the ATP left after a reaction by luminescence.)
Phosphatidylinositol 4,5-bisphosphate 3-kinase catalytic subunit alpha isoform, sequence (P42336 whole entry, canonical isoform): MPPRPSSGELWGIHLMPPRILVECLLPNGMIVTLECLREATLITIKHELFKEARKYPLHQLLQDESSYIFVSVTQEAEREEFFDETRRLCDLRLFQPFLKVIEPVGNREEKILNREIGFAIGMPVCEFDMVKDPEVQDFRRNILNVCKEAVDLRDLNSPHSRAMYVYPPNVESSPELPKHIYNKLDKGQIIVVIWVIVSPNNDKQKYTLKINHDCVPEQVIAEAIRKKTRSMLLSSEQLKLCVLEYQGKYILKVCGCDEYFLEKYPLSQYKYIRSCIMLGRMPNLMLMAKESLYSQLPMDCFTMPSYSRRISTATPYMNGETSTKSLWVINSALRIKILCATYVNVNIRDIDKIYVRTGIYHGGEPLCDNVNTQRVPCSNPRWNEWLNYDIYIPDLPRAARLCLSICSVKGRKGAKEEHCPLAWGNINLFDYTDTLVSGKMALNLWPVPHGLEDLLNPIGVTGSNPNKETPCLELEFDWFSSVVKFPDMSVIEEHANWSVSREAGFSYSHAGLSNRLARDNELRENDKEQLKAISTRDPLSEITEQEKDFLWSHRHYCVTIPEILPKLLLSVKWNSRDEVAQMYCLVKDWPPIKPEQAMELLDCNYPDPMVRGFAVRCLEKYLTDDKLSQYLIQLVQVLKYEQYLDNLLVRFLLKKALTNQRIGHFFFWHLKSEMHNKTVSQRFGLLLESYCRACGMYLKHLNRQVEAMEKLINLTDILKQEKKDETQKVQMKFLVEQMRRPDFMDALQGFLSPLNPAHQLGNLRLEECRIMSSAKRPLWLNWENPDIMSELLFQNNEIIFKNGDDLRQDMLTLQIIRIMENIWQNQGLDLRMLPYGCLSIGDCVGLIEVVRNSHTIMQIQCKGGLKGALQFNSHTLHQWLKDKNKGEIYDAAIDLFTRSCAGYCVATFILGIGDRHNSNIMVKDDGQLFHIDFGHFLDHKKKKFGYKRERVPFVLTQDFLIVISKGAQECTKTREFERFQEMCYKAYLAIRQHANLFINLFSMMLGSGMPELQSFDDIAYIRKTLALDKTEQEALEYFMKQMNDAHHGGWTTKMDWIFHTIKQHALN
The subject of data set [19] is MCF7. Nature of the data set: Antiproliferative activity against human MCF7 cells assessed as inhibition of cell growth pre-treated with compound followed by UV irradiation for 5 mins measured after 72 hrs by CTG assay. It counts as functional, cell-based. The settings on record: MCF7, light or radiation study.
Data set [20] has as its system HGC-27. Nature of the data set: Inhibition of PI3K in human HGC-27 cells assessed as reduction in AKT phosphorylation at S473 residue at 10 nM pre-treated with compound followed by UV irradiation for 5 mins measured after 24 hrs by Western blotting analysis. The data set is classed as cell-based. The settings on record: time 1445.0 min. On the technique in general: In western blotting, separated proteins are transferred to a membrane and probed.

Data set [21] has as its system SK-MEL-5. In words: Antiproliferative activity against human SK-MEL-5 cells assessed as inhibition of cell growth measured after 72 hrs by CTG assay. It counts as functional, cell-based. The settings on record: SK-MEL-5, 72 h.
For data set [22], the system named is HGC-27. Nature of the data set: Antiproliferative activity against human HGC-27 cells assessed as inhibition of cell growth pre-treated with compound followed by UV irradiation for 5 mins measured after 72 hrs by CTG assay. It counts as functional, cell-based. The settings on record: HGC-27, light or radiation study.
The subject of data set [23] is HGC-27. Nature of the data set: Inhibition of PI3K in human HGC-27 cells assessed as reduction in S6RP phosphorylation at S240 and 244 residue at 10 nM pre-treated with compound followed by UV irradiation for 5 mins measured after 24 hrs by Western blotting analysis. The data set is classed as cell-based. The settings on record: time 1445.0 min.
The nature of data set [24]: Antiproliferative activity against human U373 cells assessed as inhibition of cell growth pre-treated with compound followed by UV irradiation for 5 mins measured after 72 hrs by CTG assay. It counts as functional, cell-based. The settings on record: U373 MG, light or radiation study.
The subject of data set [25] is MCF7. In words: Antiproliferative activity against human MCF7 cells assessed as inhibition of cell growth measured after 72 hrs by CTG assay. It counts as functional, cell-based. The settings on record: MCF7, 72 h.
Data set [26] in a line: Selectivity ratio of IC50 for antiproliferative activity against human U-87 MG cells to IC50 for antiproliferative activity against human U-87 MG cells in presence of UV irradiation. The data set is classed as functional, U-87MG ATCC.

The term IC50 denotes the concentration at which inhibition is half-maximal. Take `COc1cc(COc2ccc3cc(CN(c4cc(-c5cc(OC6CCOCC6)c6ncnc(C)c6c5)cnc4OC)S(=O)(=O)c4ccc(F)cc4F)c(=O)oc3c2)c([N+](=O)[O-])cc1OC`: the Activity entry is reported as “Tde” with HGC-27 [1], “Dose-Dependent Effect” in the data set with HGC-27 [5], “Not Active” in the data set with HGC-27 [9] and “Dose-Dependent Effect” in the data set on HGC-27 [12]. Further, the IC50 in data set [2] was > 10000 nM; in the data set with SK-MEL-2 [4], 143 nM; in the data set with HGC-27 [6] it was 701 nM; in the data set with U-87 MG [11], 3260 nM; in the data set with SK-MEL-2 [14], 2810 nM; in the data set on SK-MEL-5 [15], 434 nM. Also, the concentration for half-maximal inhibition (IC50) was 52 nM in the data set on U-87 MG [16]; 18.9 nM in [18]; 428 nM with MCF7 [19]; 6560 nM in the data set with SK-MEL-5 [21]; 3.7 nM with HGC-27 [22]; 46 nM in data set [24]. Also, in the data set on MCF7 [25], the IC50 was > 10000 nM. The “Ratio IC50” value was 189 in [3]; >217 in [8]; 15 in data set [10]; 20 in [13]; 63 in data set [26]. Also, the selectivity ratio in data set [7] was > 23. In addition, in the data set on HGC-27 [17], the result was Active. Besides, the inhibition entry with HGC-27 [20] and with HGC-27 [23] was “Active” each time.
As for `COc1ncc(-c2cc(OC3CCOCC3)c3ncnc(C)c3c2)cc1NS(=O)(=O)c1ccc(F)cc1F`, the half-inhibitory concentration (IC50) in data set [2] worked out at 57 nM; with HGC-27 [6], 1.8 nM; in the data set with U-87 MG [11] it was 50 nM; in the data set on SK-MEL-2 [14], 190 nM; in [18] it was 0.17 nM; in the data set with SK-MEL-5 [21], 65 nM. Moreover, the half-inhibitory concentration (IC50) with MCF7 [25] amounted to 282 nM. Besides, the outcome with HGC-27 [17] was Active. Moreover, the inhibition entry with HGC-27 [20] and in the data set on HGC-27 [23] was “Active” in each case.
Turning to `COc1ncc(-c2cc(OC3CCOCC3)c3ncnc(C)c3c2)cc1N(Cc1cc2ccc(O)cc2oc1=O)S(=O)(=O)c1ccc(F)cc1F`, the IC50 was 25 nM in data set [2]; 3.9 nM in the data set with HGC-27 [6]; 11 nM in the data set on U-87 MG [11]; 130 nM with SK-MEL-2 [14]; 2.07 nM in [18]; 190 nM in the data set on SK-MEL-5 [21]. In addition, the half-maximal inhibitory concentration (IC50) in the data set on MCF7 [25] is 295 nM. Also, the result in the data set on HGC-27 [17] was Active. Further, the inhibition result in the data set with HGC-27 [20] and in the data set on HGC-27 [23] was “Active” throughout.
